Results reported in patent US12281329B2, “Compositions and methods for immune cell modulation in adoptive immunotherapies” (Fate Therapeutics, Inc., priority 2016, dated 2025).

Experiments:
Format in all cases: cell-based, human
[1] = tested on: NK cells; experiment: Feeder-free culture of CD3/CD19 depleted PBMC with IL-15 and GSK3 inhibitor: NK cell expansion and phenotype
Description: NK Cell Isolation. Healthy adult donor blood was obtained from commercial sources or from GCRC core laboratory of Scripps Research Institute, La Jolla, CA Peripheral blood mononuclear cells (PBMC) were isolated by density gradient centrifugation using Ficoll-Paque PLUS (GE Healthcare: Life Sciences) and then depleted of B and T cells without culturing the PBMC using CD19 Microbeads (Miltenyi Biotec, #130-050-301) and CD3 Microbeads (Miltenyi Biotec, #130-050-101) within 24 to 36 hours according to manufacturer directions.
NK cell culture: CD3/CD19 depleted PBMC (0.5-1×10E6/mL) were cultured in BO medium (2:1 mixture of DMEM, (Corning Cell-Gro #10-017-CV) and Ham's F12 (Corning Cell-Gro #10-080-C) with 10% human AB serum (Valley Biomedical, #HP1022), 100 U/mL penicillin and 100 ug/mL streptomycin (Corning, 30-002-CI), 20 uM 2-mercaptoethanol (Sigma, M3148), 50 uM ethanolamine (Sigma, E0135), 10 ug/mL ascorbic acid (Sigma, A4544), and 1.6 ng/mL sodium selenite (Sigma, S5261). Cells were cultured for 7-8 days (up to four weeks) in medium containing 10 ng/mL recombinant human IL-15 (Life Technologies, PHC9154) with or without GSK3 inhibitor CHIR99021 (BioVision #1677-5), histone lysine methyltransferase inhibitor BIX 01294 (Tocris, 3364), TGF-β1 receptor inhibitor SB-431542 (BioVison, 1674-5), or human interferon alpha (R&D Systems, 11200-1). After culturing, cells were counted using trypan blue or by Cellometer (Nexcelom) and used for flow cytometry and functional assays. Flow cytometry was performed on a BD LSRFortessa and results were analyzed by FlowJo software. Commercially available antibodies to the following surface markers were used for flow cytometry: CD3, CD14, CD16, CD19, CD56, CD57 and NKG2C (BD Biosciences, Biolegend, or R&D Systems). Where indicated, K562 feeder cells were used. Where indicated other modulators and culture reagents were added.
One aspect of the present invention is to provide a method and a system to culture, expand and/or modulate NK cells for adoptive cell therapy. In some embodiments, the method and system for culturing, expanding and/or modulating NK cells is without the use of feeder cells, or feeder cell conditioned medium. Peripheral blood mononuclear cells (PBMC) were isolated from healthy adult donors. The isolated apheresis product (Day 0, pre-depletion; FIG. 2A) was T and B cell depleted using anti-CD19 and CD3 antibodies without pre-depletion culturing (Day 0, post-depletion; FIG. 2B). The post-depletion cell population was then cultured in a feeder free condition with the presence of recombinant human IL-15 (10 ng/mL) and 5 μM CHIR99021, a GSK3 inhibitor, for about 3 to 7 days.

[2] = tested on: NK cells; experiment: NK cell intracellular cytokine staining after IL-12+IL-18 or K562 stimulation; details: 7 days 10 ng/ml IL-15 + 5 uM CHIR99021; 4-hour IL12+IL18 or K562 stimulation; vs primed or 7 day IL15 only
Description: NK Cell Intracellular Cytokine Staining: CD3/CD9 depleted PBMC were cultured for 7 days with 10 ng/ml IL-15 and 5 uM CHIR99021 or vehicle control. On culture day 7 cells were washed and cultured separately with IL-12 and IL-18 (long/ml and 50 ng/ml, respectively) (Life Technologies) or with K562 cells at a 1:1 ratio. Golgistop (BD Biosciences) was included in the culture media to facilitate intracellular detection of cytokines. After a 4 hour culture period, cells were stained for cell surface antigens and fixed prior to intracellular staining with antibodies to IFN-gamma and TNF-alpha (BD Biosciences). Staining was performed using the BD Cytofix/Cytoperm™ Kit according to the manufacturer's instructions.
Also analyzed was the effect of GSK3 inhibitor treatment to NK cell cytokine response. PBMC obtained directly from donors were cultured after CD3/CD9 depletion for 7 days with 10 ng/ml IL-15 and 5 uM CHIR99021, or with IL15 only. On day 7, cells were washed and cultured separately with IL-12 (long/ml) and IL-18 (50 ng/ml), or with K562 cells at a 1:1 ratio for stimulation. After a 4-hour culture period, cells were stained for cell surface antigens and fixed prior to intracellular staining with antibodies to IFNγ and TNFα, respectively.

[3] = tested on: primary AML blasts; experiment: NK cell cytotoxicity against primary AML blasts; details: multi-day IL-15 + GSK3i NK cells vs overnight primed
Description: (§1) NK Cell Cytotoxicity Assay: Cytotoxicity was determined using a flow cytometry based method based on a previously published method (Kim, et al. J Immunol Methods. 2007 Aug. 31; 325(1-2): 51-66). NK cells were co-cultured with e450-proliferation dye-labelled targets for 4 hours. CellEvent™ Caspase-3/7 Green Flow Cytometry Assay Kit (Lifer Technologies) was used to assay for cell death among target cells, and samples were read on a BD LSRFortessa cytometer. Killing of SKOV-3 targets was quantified using the Incucyte Zoom instrument. SKOV-3 cells were transiently transduced with NucLight-Red BacMam reagent (Essen Biosciences) and co-cultured with the indicated NK cell populations for 74 hours, with images taken on two hour intervals. Caspase 3/7 activity was monitored to indicate target cells undergoing apoptosis using the CellEvent™ Caspase-3/7 Green Detection Reagent. The number of target cells was normalized to SKOV-3 cells cultured alone, and targets undergoing apoptosis were quantified based on caspase 3/7 activity.
Cytotoxicity of CD3/CD19 depleted PBMC cultured multiple days with IL-15 and GSK3i (GSK3i modulated NK cells) versus overnight primed NK cells against primary AML blasts were also compared. Percent specific killing of primary AML blasts from multiple patients was measured by flow cytometry-based cytotoxicity assay.

[4] = tested on: HER2+ SKOV3 cells; experiment: NK cell killing and Herceptin ADCC of SKOV3 cells
Description: as §1
In a similar fashion, SKOV3 cells were treated with NK cells derived from overnight culture with IL15, 7 day culture with IL15 and 7 day culture with IL15 and GSK3i. […]

[5] = 7 day culture with GSK3 inhibitor vs cultured without GSK3i
[6] = Day 7 GSK3i culture vs overnight primed

**Q.** Which results are given for Cc1c[nH]c(-c2cnc(NCCNc3ccc(C#N)cn3)nc2-c2ccc(Cl)cc2Cl)n1 [CHIR99021]?
**A.** percentage of CD57+ cells in the total NK populations ([1]; 7 day culture with GSK3i vs 7 day without GSK3i): increased; CD57+ NK cell number, increase on average [1, 5]: 7-8 fold; CD57+NKG2C+ NK cell number, increase on average [1, 5]: 7-8 fold; NK cell (CD56+CD3−) percentage in population ([1]; Day 7, IL-15 10 ng/mL + 5 μM CHIR99021, feeder free, about 20% post-depletion Day 0): about 99%; remaining T cells (CD56-CD3+) percentage in population ([1]; Day 7, IL-15 10 ng/mL + 5 μM CHIR99021, about 1% post-depletion): 0.25%; cell number of CD57+ NK subset, increase on average [1, 6]: 5-6 fold; cell number of CD57+NKG2C+ NK subset, increase on average [1, 6]: 5-6 fold; frequency of CD57+ cells in the culture ([1]; short term treatment, 16 hours, comparable to vehicle): did not generate a higher frequency; IFNγ production in NK cells [2]: enhanced; TNFα production in NK cells [2]: enhanced; percent specific killing of primary AML blasts [3]: highly and consistently effective; killing of SKOV3 cells (killing rate and killing efficiency; elimination, caspase 3/7 peak) ([4]; 7 day IL15 + GSK3i vs overnight IL15 and 7 day IL15): most effective; ADCC killing of SKOV3 with HER2 antibody (Herceptin) ([4]; NK cells 7 days IL15 + GSK3i vs overnight IL15 and 7 day IL15): enhanced
